Test results reported in ChEMBL document CHEMBL4229324, “Synthesis and antitumor activities of 1,2,3-triazines and their benzo- and heterofused derivatives” (Eur J Med Chem, 2017).
≈ marks a conversion by molar mass, not a printed value.

Columns and labels:
[1] = Acute toxicity in white mongrel mouse administered as single intraperitoneal injection; assay type: organism-based; conditions: in vivo, ip
[2] = target: Ribosomal protein S6 kinase beta-1 (Homo sapiens, UniProt P23443, T412E); assay: Inhibition of N-terminal 6His-tagged human recombinant p70S6K T412E mutant (1 to 421 residues) in Sf21 insect cells using FITC-AHA-AKRRRLSSLRA-OH substrate peptide incubated for 90 mins
Homo sapiens = species: Homo sapiens; assay: Antiproliferative activity against HMVEC incubated for 4 days by MTT assay; assay type: functional
MCF7 [3] = assay: Antiproliferative activity against human MCF7 cells assessed as cell survival at 25 ug/ml relative to untreated control; assay type: functional; conditions: read-out: Survival
[4] = target: Epidermal growth factor receptor (Homo sapiens, UniProt P00533); assay: Inhibition of EGFR (unknown origin)
T47D = assay: Antiproliferative activity against human T47D cells assessed as inhibition of cell proliferation incubated for 48 hrs by cell-titer-Glo reagent based assay; assay type: functional
MDA-MB-435 = assay: Antiproliferative activity against human MDA-MB-435 cells assessed as inhibition of cell proliferation incubated for 48 hrs by cell-titer-Glo reagent based assay; assay type: functional; conditions: MDA-MB-435, 48 h
MX1 = assay: Antiproliferative activity against human MX1 cells assessed as inhibition of cell proliferation incubated for 48 hrs by cell-titer-Glo reagent based assay; assay type: functional; conditions: MX1, 48 h
Caspase = assay: Activation of caspase cascade in human T47D cells using N-(Ac-DEVD)-N'-ethoxycarbonyl-R110 fluorogenic substrate incubated for 48 hrs by fluorescent plate reader based assay; assay type: cell-based
NCI-H1299 = assay: Antiproliferative activity against human NCI-H1299 cells assessed as inhibition of cell proliferation incubated for 48 hrs by cell-titer-Glo reagent based assay; assay type: functional; conditions: NCI-H1299, 48 h
HT-29 = assay: Antiproliferative activity against human HT-29 cells assessed as inhibition of cell proliferation incubated for 48 hrs by cell-titer-Glo reagent based assay; assay type: functional; conditions: HT-29, 48 h
[5] = Inhibition of binding of beta-FGF to heparin pre-incubated with beta-FGF prior to application to plate for 45 mins by ELISA
[6] = Inhibition of binding of vascular endothelial growth factor to heparin pre-incubated with VEGF prior to application to plates for 45 mins by ELISA
MCF7 [7] = assay: Cytotoxic activity against human MCF7 cells; assay type: functional, cell-based
PC-3 = assay: Antiproliferative activity against human PC3 cells incubated for 4 days by MTT assay; assay type: functional, cell-based; conditions: PC-3, 96 h
DU-145 = assay: Antiproliferative activity against human DU145 cells incubated for 4 days by MTT assay; assay type: functional, cell-based; conditions: DU-145, 96 h
B16-F10 = assay: Antiproliferative activity against mouse B16F10 cells incubated for 4 days by MTT assay; assay type: functional, cell-based; conditions: B16-F10, 96 h
[8] = system: Lewis lung carcinoma cell line; assay: Antiproliferative activity against mouse LL/2 cells incubated for 4 days by MTT assay; assay type: functional, cell-based; conditions: 96 h
[9] = target: T1, Tyrosine-protein kinase JAK3 (Homo sapiens, UniProt P52333); assay: Inhibition of JAK3 (unknown origin)
T1 sequence (P52333 whole entry): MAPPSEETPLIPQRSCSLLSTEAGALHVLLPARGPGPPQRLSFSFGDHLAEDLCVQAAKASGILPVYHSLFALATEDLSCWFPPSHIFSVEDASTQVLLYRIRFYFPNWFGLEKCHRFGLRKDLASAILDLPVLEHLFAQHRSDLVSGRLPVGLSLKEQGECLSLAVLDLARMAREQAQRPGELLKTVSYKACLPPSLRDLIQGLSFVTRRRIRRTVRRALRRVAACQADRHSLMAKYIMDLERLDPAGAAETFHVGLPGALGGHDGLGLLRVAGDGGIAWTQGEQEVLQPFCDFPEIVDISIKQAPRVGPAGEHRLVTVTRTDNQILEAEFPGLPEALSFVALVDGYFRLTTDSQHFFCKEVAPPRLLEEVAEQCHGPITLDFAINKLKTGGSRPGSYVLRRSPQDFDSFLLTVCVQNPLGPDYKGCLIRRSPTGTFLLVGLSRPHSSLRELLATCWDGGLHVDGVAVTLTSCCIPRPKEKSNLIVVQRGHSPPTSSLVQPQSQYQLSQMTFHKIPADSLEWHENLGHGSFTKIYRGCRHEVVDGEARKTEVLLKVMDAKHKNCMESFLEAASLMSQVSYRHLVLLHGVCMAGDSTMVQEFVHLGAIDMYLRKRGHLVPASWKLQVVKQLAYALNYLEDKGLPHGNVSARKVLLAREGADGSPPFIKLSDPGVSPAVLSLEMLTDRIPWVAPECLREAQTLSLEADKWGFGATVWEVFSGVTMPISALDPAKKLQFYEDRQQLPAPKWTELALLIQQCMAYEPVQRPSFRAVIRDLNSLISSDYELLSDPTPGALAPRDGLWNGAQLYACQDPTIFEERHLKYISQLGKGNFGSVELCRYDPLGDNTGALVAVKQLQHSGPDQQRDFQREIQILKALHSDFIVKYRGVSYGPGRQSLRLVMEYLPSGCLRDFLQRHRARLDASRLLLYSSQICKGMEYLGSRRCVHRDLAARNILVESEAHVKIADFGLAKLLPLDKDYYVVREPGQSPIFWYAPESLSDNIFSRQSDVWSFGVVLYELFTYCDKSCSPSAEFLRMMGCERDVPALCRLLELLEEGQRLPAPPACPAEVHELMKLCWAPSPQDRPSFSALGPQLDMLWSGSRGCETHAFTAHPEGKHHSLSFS

Ribosomal protein S6 kinase beta-1, sequence (P23443 whole entry T412E, the tested form may be a part): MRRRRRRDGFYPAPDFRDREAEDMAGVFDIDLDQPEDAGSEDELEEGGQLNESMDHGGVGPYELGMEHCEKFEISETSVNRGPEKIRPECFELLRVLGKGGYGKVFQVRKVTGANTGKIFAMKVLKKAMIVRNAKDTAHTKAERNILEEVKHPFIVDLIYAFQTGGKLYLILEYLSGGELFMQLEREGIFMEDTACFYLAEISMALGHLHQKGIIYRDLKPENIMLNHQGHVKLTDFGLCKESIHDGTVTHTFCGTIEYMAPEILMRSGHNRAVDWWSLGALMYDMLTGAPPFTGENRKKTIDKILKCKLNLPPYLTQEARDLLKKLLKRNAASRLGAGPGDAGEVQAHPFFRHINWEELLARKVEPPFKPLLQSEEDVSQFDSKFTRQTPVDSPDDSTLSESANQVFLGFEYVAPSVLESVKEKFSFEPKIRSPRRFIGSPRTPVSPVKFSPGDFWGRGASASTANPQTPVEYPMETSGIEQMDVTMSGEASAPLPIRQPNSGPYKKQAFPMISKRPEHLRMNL
Epidermal growth factor receptor, sequence (P00533 whole entry): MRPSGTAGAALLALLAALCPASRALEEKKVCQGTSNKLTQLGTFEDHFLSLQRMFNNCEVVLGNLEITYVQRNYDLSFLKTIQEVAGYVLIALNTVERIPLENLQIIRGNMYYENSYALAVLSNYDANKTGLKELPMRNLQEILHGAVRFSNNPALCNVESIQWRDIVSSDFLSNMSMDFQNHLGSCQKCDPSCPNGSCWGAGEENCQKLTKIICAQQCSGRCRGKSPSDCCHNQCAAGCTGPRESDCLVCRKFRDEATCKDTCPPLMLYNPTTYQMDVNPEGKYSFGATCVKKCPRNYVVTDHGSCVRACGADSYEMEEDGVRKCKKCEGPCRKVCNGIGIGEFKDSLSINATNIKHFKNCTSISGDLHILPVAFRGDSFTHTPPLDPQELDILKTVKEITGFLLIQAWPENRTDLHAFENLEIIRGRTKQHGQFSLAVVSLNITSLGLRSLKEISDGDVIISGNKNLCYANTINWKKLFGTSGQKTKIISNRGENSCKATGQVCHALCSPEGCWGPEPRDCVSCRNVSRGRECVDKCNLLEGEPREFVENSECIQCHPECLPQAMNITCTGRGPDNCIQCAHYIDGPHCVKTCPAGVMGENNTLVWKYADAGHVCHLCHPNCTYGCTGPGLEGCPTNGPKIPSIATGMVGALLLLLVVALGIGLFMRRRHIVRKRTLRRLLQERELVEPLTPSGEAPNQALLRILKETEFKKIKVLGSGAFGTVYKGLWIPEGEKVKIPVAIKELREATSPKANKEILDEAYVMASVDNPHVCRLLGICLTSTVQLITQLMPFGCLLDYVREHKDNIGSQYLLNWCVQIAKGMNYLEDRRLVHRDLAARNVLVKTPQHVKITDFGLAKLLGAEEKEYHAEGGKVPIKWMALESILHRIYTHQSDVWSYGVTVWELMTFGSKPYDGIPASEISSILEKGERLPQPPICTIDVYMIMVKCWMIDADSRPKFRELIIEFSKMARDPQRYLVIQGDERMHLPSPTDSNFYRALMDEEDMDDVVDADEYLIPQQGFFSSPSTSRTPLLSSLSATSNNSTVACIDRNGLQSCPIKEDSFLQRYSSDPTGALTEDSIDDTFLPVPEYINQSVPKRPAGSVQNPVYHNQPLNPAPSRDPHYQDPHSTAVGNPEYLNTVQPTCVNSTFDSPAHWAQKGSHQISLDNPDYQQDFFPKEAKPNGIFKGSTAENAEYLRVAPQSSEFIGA

Compound | IC50 [2] [µM] | GI50 (Homo sapiens) [µM] | further results
C=CCNc1nnnc2c1sc1nc(N3CCOCC3)c3c(c12)CC(C)(C)OC3 | – | – | MTD [1]: 2000 mg/kg
CN(C)C[C@@H](Nc1nnnc2c(C(N)=O)cccc12)c1ccc(Cl)c(C#N)c1 | 0.025 to 0.1 | – | –
CCCCCOc1cc2nnnc(Nc3ccc(Cl)cc3)c2cc1OC | – | 25.4 | –
Clc1ccc(Nc2nnnc3ccccc23)cc1 | – | > 80 | –
Oc1cccc(Nc2nnnc3sc4c(c23)CCC4)c1 | – | – | viability at 25 µg/mL (MCF7 [3]): 12%; IC50 [4]: 52.1 µM
COc1cc2c(Nc3cc(Cl)cc(Cl)c3)nnnc2cc1OCCCCl | – | 28.8 | –
NC(=O)c1cccc2c(N[C@H](CN3CCC3)c3ccc(Cl)c(Cl)c3)nnnc12 | < 0.025 | – | –
N#Cc1cc([C@@H](CN2CCC2)Nc2nnnc3c(C(N)=O)cccc23)ccc1Cl | < 0.025 | – | –
NC(=O)c1cccc2c(NCc3cccnc3)nnnc12 | > 1 | – | –
COc1ccc(N(C)c2nnnc3ccccc23)cc1 | – | – | IC50 (T47D): 0.007 to 0.05 µM; IC50 (MDA-MB-435): 0.007 to 0.05 µM; IC50 (MX1): 0.007 to 0.05 µM; EC50 (Caspase): 0.016 µM; IC50 (NCI-H1299): 0.007 to 0.05 µM; IC50 (HT-29): 0.007 to 0.05 µM
COc1cc2c(Nc3ccc(F)c(C(F)(F)F)c3)nnnc2cc1OCCCCl | – | 15.2 | –
COc1cc2c(Nc3ccc(Cl)cc3)nnnc2cc1OCCCCl | – | 18.6 | –
CCOc1cc2nnnc(Nc3ccc(C)cc3)c2cc1OC | – | 42.6 | –
COc1cc2c(Nc3cccc(OC(F)(F)F)c3)nnnc2cc1OCCCCl | – | 24.9 | –
COc1cc([C@@H](CN2CCC2)Nc2nnnc3c(C(N)=O)cccc23)ccc1Cl | < 0.025 | – | –
CC1(C)Cc2c(c(N3CCOCC3)nc3sc4c(Cl)nnnc4c23)CO1 | – | – | MTD [1]: 2000 mg/kg
CC1(C)Cc2c(c(N3CCOCC3)nc3sc4c(NNc5ccccc5)nnnc4c23)CO1 | – | – | MTD [1]: 2000 mg/kg
COc1cc([C@@H](CN(C)C)Nc2nnnc3c(C(N)=O)cccc23)ccc1Cl | 0.025 to 0.1 | – | –
CC1(C)Cc2c(c(N3CCOCC3)nc3sc4c(N5CCNCC5)nnnc4c23)CO1 | – | – | MTD [1]: 2000 mg/kg

Compound | IC50 [2] [µM] | GI50 (Homo sapiens) [µM] | further results
CC(C)(CC(=O)On1nnc2ccccc2c1=O)CN1C(=O)c2cc3oc(-c4ccc(Cl)cc4)cc3n2C1=S | – | – | IC50 [5]: 0.16 µM; IC50 [6]: 0.26 µM
Oc1ccc(Nc2nnnc3sc4c(c23)CCC4)cc1 | – | – | viability at 25 µg/mL (MCF7 [3]): 13%; IC50 [4]: 38.7 µM
O=c1[nH]nnc2c1C1C(=Cc3ccccc31)S2 (stereo not drawn) | – | – | IC50 (MCF7 [7]): 6 µg/mL (≈ 24.9 µM)
COc1cc2c(Nc3cccc(C(F)(F)F)c3)nnnc2cc1OCCCCl | – | 21.4 | –
CCN(CC)CCNc1nnnc2c1sc1nc(N3CCOCC3)c3c(c12)CC(C)(C)OC3 | – | – | MTD [1]: 2000 mg/kg
c1ccc(NNc2nnnc3c2sc2nc(N4CCOCC4)c4c(c23)CCCC4)cc1 | – | – | MTD [1]: 2000 mg/kg
NC(=O)c1cccc2c(NCc3ccccc3)nnnc12 | 0.501 to 1 | – | –
NC(=O)c1cccc2c(NCc3cccc(C(F)(F)F)c3)nnnc12 | 0.101 to 0.5 | – | –
CCCCCCNc1nnnc2c1sc1nc(N3CCOCC3)c3c(c12)CC(C)(C)OC3 | – | – | MTD [1]: 2000 mg/kg
NC(=O)c1cccc2c(NCc3ccccn3)nnnc12 | > 1 | – | –
NC(=O)c1cccc2c(N[C@H](CN3CCC3)c3ccc(F)c(C(F)(F)F)c3)nnnc12 | < 0.025 | – | –
COc1cc2c(Nc3ccc(F)c(Cl)c3)nnnc2cc1OCCCCl | – | 7.98 | IC50 (PC-3): 3.79 to 6.91 µM; IC50 (DU-145): 3.79 to 6.91 µM; IC50 (B16-F10): 3.79 to 6.91 µM; IC50 [8]: 3.79 to 6.91 µM
COc1cc2c(Nc3ccc(C)cc3)nnnc2cc1OCCCCl | – | 17.1 | –
CCCCCOc1cc2nnnc(Nc3cccc(OC(F)(F)F)c3)c2cc1OC | – | 42.6 | –
CC1(C)Cc2c(c(N3CCOCC3)nc3sc4c(N(Cc5ccccc5)Cc5ccccc5)nnnc4c23)CO1 | – | – | MTD [1]: 2000 mg/kg
NNc1nnnc2c1sc1nc(N3CCOCC3)c3c(c12)CCCC3 | – | – | MTD [1]: 2000 mg/kg
CCOc1cc2nnnc(Nc3ccc(Cl)cc3)c2cc1OC | – | 26.5 | –
NC(=O)c1c[nH]c2nnnc(O)c12 | – | – | IC50 [9]: < 10 µM
CCCCCOc1cc2nnnc(Nc3ccc(OC(F)(F)F)cc3)c2cc1OC | – | 38 | –

Compound | IC50 [2] [µM] | GI50 (Homo sapiens) [µM] | further results
c1coc(CNc2nnnc3c2sc2nc(N4CCOCC4)c4c(c23)CCCC4)c1 | – | – | MTD [1]: 2000 mg/kg
NC(=O)c1cccc2c(NCc3cc(C(F)(F)F)ccn3)nnnc12 | > 1 | – | –
COc1cc2c(Nc3ccc(OC(F)(F)F)cc3)nnnc2cc1OCCCCl | – | 23.2 | –
CC1(C)Cc2c(c(N3CCOCC3)nc3sc4c(NN)nnnc4c23)CO1 | – | – | MTD [1]: 2000 mg/kg
CC(C)CCNc1nnnc2c1sc1nc(N3CCOCC3)c3c(c12)CCCC3 | – | – | MTD [1]: 2000 mg/kg
CCOc1cc2nnnc(Nc3ccc(F)c(Cl)c3)c2cc1OC | – | 38.8 | –
NC(=O)c1cccc2c(NCc3ccc(C(F)(F)F)cc3)nnnc12 | 0.025 to 0.1 | – | –
NC(=O)c1cccc2c(NCc3ccc(Cl)c(Cl)c3)nnnc12 | < 0.025 | – | –
CN(C)C[C@@H](Nc1nnnc2c(C(N)=O)cccc12)c1ccc(Cl)c(Cl)c1 | < 0.025 | – | –
NC(=O)c1cccc2c(NCc3cccc(F)c3)nnnc12 | 0.501 to 1 | – | –
COc1cc2c(Nc3ccc(Cl)c(Cl)c3)nnnc2cc1OCCCCl | – | 11 | –
Clc1nnnc2c1sc1nc(N3CCOCC3)c3c(c12)CCCC3 | – | – | MTD [1]: 2000 mg/kg
COc1cc2c(Nc3ccc(F)cc3)nnnc2cc1OCCCCl | – | 23.1 | –
NC(=O)c1cccc2c(N[C@H](CN3CCC3)c3ccc(Cl)c(C(F)(F)F)c3)nnnc12 | < 0.025 | – | –
COc1cc2c(Nc3ccccc3)nnnc2cc1OCCCCl | – | > 80 | –
NC(=O)c1cccc2c(NCc3ccc(Cl)c(C(F)(F)F)c3)nnnc12 | < 0.025 | – | –
CN(C)C[C@@H](Nc1nnnc2c(C(N)=O)cccc12)c1ccc(Cl)c(C(F)(F)F)c1 | < 0.025 | – | –
CC(C)CCNc1nnnc2c1sc1nc(N3CCOCC3)c3c(c12)CC(C)(C)OC3 | – | – | MTD [1]: 2000 mg/kg
